These compounds were tested against T1, PD-1/PD-L1 (Homo sapiens, UniProt Q9NZQ7) (assay: PD-1/PD-L1 homogeneous time-resolved fluorescence (HTRF) binding assay). Settings: PD-1/PD-L1 HTRF binding, ~3 nM PD1, 10 nM PD-L1, 25° C., PBS pH 7.4.
T1 construct: Recombinant human PD-L1 protein (19-238) with a His-tagged at the C-terminus; purchased AcroBiosystems PD1-H5229 (PD-L1); PD1-H5257 (PD-1)
Procedure: Assays were performed in standard black 384-well polystyrene plates and a final volume was 20 μL. The inhibitor was first serially diluted with DMSO and added to the wells of the plate, followed by the addition of other reaction components. The final concentration of DMSO in the assay was 1%. Assays were performed at 25° C. in PBS buffer (pH 7.4) containing 0.05% Tween-20 and 0.1% BSA. Recombinant human PD-L1 protein (19-238) with a His-tagged at the C-terminus was purchased from AcroBiosystems (PD1-H5229). Recombinant human PD-1 protein (25-167) with an Fc tag at the C-terminus was also purchased from AcroBiosystems (PD1-H5257). The PD-L1 and PD-1 proteins were diluted in assay buffer and then […] of the solution was extracted and added to the wells of the plate. Plates were centrifuged and proteins and inhibitors were preincubated for 40 minutes. After incubation, 0.1 μl of HTRF detection buffer containing europium […] labeled anti-human IgG (PerkinElmer-AD0212), Fc-specific and anti-His SureLight®-Allophycocyanin (APC, PerkinElmer-AD0059H) conjugated antibodies was added. After centrifugation, the plates were incubated at 25° C. for 60 minutes. Data was read in a PHERAstar FS plate reader (665 nm/620 nm ratio). Final concentrations in the assay were ˜3 nM PD1, 10 nM PD-L1, 1 nM europium anti-human IgG, and 20 nM anti-His-allophycocyanin. Activity data were fitted using GraphPad Prism 5_0 software to derive IC50 values for inhibitors.

T1 sequence (Q9NZQ7 19-238): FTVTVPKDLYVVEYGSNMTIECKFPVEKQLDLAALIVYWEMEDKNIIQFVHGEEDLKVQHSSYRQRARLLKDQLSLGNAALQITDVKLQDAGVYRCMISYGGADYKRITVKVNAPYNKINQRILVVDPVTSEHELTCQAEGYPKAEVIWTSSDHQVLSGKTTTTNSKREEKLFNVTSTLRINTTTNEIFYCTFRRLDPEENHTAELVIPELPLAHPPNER

Row | IC50 [nM] | SMILES
1 | ≤ 10 | Cc1c(Nc2nccc3cc(CN4CC[C@@H](O)C4)cnc23)cccc1-c1cccc(-c2cc3cc4c(c([N+](=O)[O-])c3o2)CCCC4N2CC(C(=O)O)C2)c1C (stereo partly shown) [Compound 001]
2 | ≤ 10 | Cc1c(Nc2nccc3cc(CN4CC[C@@H](O)C4)cnc23)cccc1-c1cccc(-c2cc3cc4c(c(C#N)c3o2)CCCC4N2CC(C(=O)O)C2)c1C (stereo partly shown) [Compound 002]
3 | ≤ 10 | COc1nc(-c2cccc(-c3cccc(-c4cc5cc6c(c(C#N)c5o4)CCC6N4CC[C@@H](C(=O)O)C4)c3C)c2C)cnc1CN1CC[C@@H](O)C1 (stereo partly shown) [Compound 003]
4 | ≤ 10 | Cc1c(Nc2nccc3cc(CN4CC[C@@H](O)C4)cnc23)cccc1-c1cccc(-c2nc3cc4c(c(C#N)c3o2)CCC4N2CC[C@@H](C(=O)O)C2)c1C (stereo partly shown) [Compound 004]
5 | ≤ 10 | N#Cc1c2c(cc3nc(-c4cccc(-c5cccc(Nc6nccc7cc(CN8CC[C@@H](O)C8)cnc67)c5Cl)c4Cl)oc13)C(N1CC[C@@H](C(=O)O)C1)CC2 (stereo partly shown) [Compound 005]
6 | ≤ 10 | Cc1c(Nc2nccc3cc(CN4CC[C@@H](O)C4)cnc23)cccc1-c1cccc(-c2nc3cc4c(c(C#N)c3o2)CC[C@@H]4N2CC[C@@H](C(=O)O)C2)c1C [Compound 006]
7 | ≤ 10 | Cc1c(Nc2nccc3cc(CN4CC[C@@H](O)C4)cnc23)cccc1-c1cccc(-c2nc3cc4c(c(C#N)c3o2)CC[C@H]4N2CC[C@@H](C(=O)O)C2)c1C [Compound 007]
8 | ≤ 10 | COc1nc(-c2cccc(-c3cccc(-c4nc5cc6c(c(C#N)c5o4)CCC6N4CC[C@@H](C(=O)O)C4)c3C)c2C)ccc1CN1CC[C@@H](O)C1 (stereo partly shown) [Compound 008]
9 | ≤ 10 | Cc1c(Nc2nccc3cc(CN4CC[C@@H](O)C4)cnc23)cccc1-c1cccc(-c2nc3cc4c(c(C#N)c3o2)CCC4N2CC[C@@H](C(=O)NS(=O)(=O)C3CC3)C2)c1C (stereo partly shown) [Compound 009]
10 | ≤ 10 | Cc1c(Nc2nccc3cc(CN4CC[C@@H](O)C4)cnc23)cccc1-c1cccc(-c2nc3cc4c(c(C#N)c3o2)CCC4N2CC[C@@H](C(N)=O)C2)c1C (stereo partly shown) [Compound 010]
11 | ≤ 10 | N#Cc1c2c(cc3nc(-c4cccc(-c5cccc(Nc6nccc7cc(CN8CC[C@@H](O)C8)cnc67)c5Cl)c4Cl)oc13)[C@@H](NCCC(=O)O)CC2 [Compound 011]
12 | ≤ 10 | N#Cc1c2c(cc3nc(-c4cccc(-c5cccc(Nc6nccc7cc(CN8CC[C@@H](O)C8)cnc67)c5Cl)c4Cl)oc13)[C@@H](NCC(=O)O)CC2 [Compound 012]
13 | ≤ 10 | CN(CC(=O)O)[C@H]1CCc2c1cc1nc(-c3cccc(-c4cccc(Nc5nccc6cc(CN7CC[C@@H](O)C7)cnc56)c4Cl)c3Cl)oc1c2C#N [Compound 013]
14 | ≤ 10 | Cc1c(Nc2nc(N)nc3cc(CN4CC[C@@H](O)C4)cnc23)cccc1-c1cccc(-c2nc3cc4c(c(C#N)c3o2)CC[C@H]4N2CC[C@@H](C(=O)O)C2)c1C [Compound 015]
15 | ≤ 10 | Cc1c(Nc2nc(C(F)F)nc3cc(CN4CC[C@@H](O)C4)cnc23)cccc1-c1cccc(-c2nc3cc4c(c(C#N)c3o2)CC[C@H]4N2CC[C@@H](C(=O)O)C2)c1C [Compound 016]
16 | ≤ 10 | Cc1c(Nc2nccc3cc(CN4CC[C@@H](O)C4)cnc23)cccc1-c1cccc(-c2cc3cc4c(c(C#N)c3o2)CCCC4N2CC[C@@H](C(=O)O)C2)c1C (stereo partly shown) [Compound 017]
17 | ≤ 10 | Cc1c(Nc2nccc3cc(CN4CC[C@@H](O)C4)cnc23)cccc1-c1cccc(-c2cc3cc4c(c(C#N)c3o2)CCC4N2CC[C@@H](C(=O)O)C2)c1C (stereo partly shown) [Compound 018]
18 | ≤ 10 | Cc1c(Nc2nccc3cc(CN4CC[C@@H](O)C4)cnc23)cccc1-c1cccc(-c2cc3cc4c(c(C#N)c3o2)CCCC4N2CC[C@@H](O)C2)c1C (stereo partly shown) [Compound 019]
19 | ≤ 10 | Cc1c(Nc2nccc3cc(CN4CC[C@@H](O)C4)cnc23)cccc1-c1cccc(-c2cc3cc4c(c(C#N)c3o2)CCC4N2CC[C@@H](O)C2)c1C (stereo partly shown) [Compound 020]
20 | ≤ 10 | N#Cc1c2c(cc3cc(-c4cccc(-c5cccc(Nc6nccc7cc(CN8CC[C@@H](O)C8)cnc67)c5Cl)c4Cl)oc13)C(N1CC[C@@H](C(=O)O)C1)CC2 (stereo partly shown) [Compound 021]
21 | ≤ 10 | Cc1c(Nc2nccc3cc(CN4CC[C@@H](O)C4)cnc23)cccc1-c1cccc(-c2cc3cc4c(c(C#N)c3o2)CC[C@@H]4N)c1C [Compound 022]
22 | ≤ 10 | Cc1c(Nc2nccc3cc(CN4CC[C@@H](O)C4)cnc23)cccc1-c1cccc(-c2cc3cc4c(c(C#N)c3o2)CCCC4NCCO)c1C (stereo partly shown) [Compound 023]

Row | IC50 [nM] | SMILES
23 | ≤ 10 | Cc1c(Nc2nccc3cc(CN4CC[C@@H](O)C4)cnc23)cccc1-c1cccc(-c2nc3cc4c(c(C#N)c3o2)CCC4N2CC[C@@H](C(=O)O)C2)c1Cl (stereo partly shown) [Compound 026]
24 | ≤ 10 | Cc1c(-c2nc3cc4c(c(C#N)c3o2)CCC4N2CC[C@@H](C(=O)O)C2)cccc1-c1cccc(Nc2nccc3cc(CN4CC[C@@H](O)C4)cnc23)c1Cl (stereo partly shown) [Compound 027]
25 | ≤ 10 | Cc1c(Nc2nccc3cc(CN4CC[C@@H](O)C4)cnc23)cccc1-c1cccc(-c2nc3cc4c(c(C#N)c3o2)CCC4NCCC(=O)O)c1C (stereo partly shown) [Compound 028]
26 | ≤ 10 | N#Cc1c2c(cc3nc(-c4cccc(-c5cccc(Nc6nccc7cc(CN8CC[C@@H](O)C8)cnc67)c5Cl)c4Cl)oc13)[C@@H](N1CC[C@@H](C(=O)O)C1)CC2 [Compound 029]
27 | ≤ 10 | N#Cc1c2c(cc3nc(-c4cccc(-c5cccc(Nc6nccc7cc(CN8CC[C@@H](O)C8)cnc67)c5Cl)c4Cl)oc13)[C@H](N1CC[C@@H](C(=O)O)C1)CC2 [Compound 030]
28 | ≤ 10 | N#Cc1c2c(cc3nc(-c4cccc(-c5cccc(Nc6nccc7cc(CN8CC[C@@H](O)C8)cnc67)c5Cl)c4Cl)oc13)[C@H](NCCC(=O)O)CC2 [Compound 031]
29 | ≤ 10 | Cc1c(Nc2nccc3cc(CN4CC[C@@H](O)C4)cnc23)cccc1-c1cccc(-c2nc3cc4c(c(C#N)c3o2)CC[C@H]4N2CC[C@@H](C(=O)NS(=O)(=O)C3CC3)C2)c1C [Compound 032]
30 | ≤ 10 | COc1nc(-c2cccc(-c3cccc(-c4nc5cc6c(c(C#N)c5o4)CC[C@H]6N4CC[C@@H](C(=O)NS(=O)(=O)C5CC5)C4)c3C)c2C)ccc1CN1CC[C@@H](O)C1 [Compound 034]
31 | ≤ 10 | COc1nc(-c2cccc(-c3cccc(-c4nc5cc6c(c(C#N)c5o4)CC[C@H]6N4CC[C@@H](C(=O)NS(=O)(=O)C5CC5)C4)c3Cl)c2Cl)ccc1CN1CC[C@@H](O)C1 [Compound 035]
32 | ≤ 10 | COc1nc(-c2cccc(-c3cccc(-c4nc5cc6c(c(C#N)c5o4)CC[C@H]6N4CC[C@@H](C(=O)NS(=O)(=O)C5CC5)C4)c3C)c2C)cnc1CN1CC[C@@H](O)C1 [Compound 036]
33 | ≤ 10 | COc1nc(-c2cccc(-c3cccc(-c4nc5cc6c(c(C#N)c5o4)CC[C@H]6N4CC[C@@H](C(=O)NS(=O)(=O)C5CC5)C4)c3Cl)c2Cl)cnc1CN1CC[C@@H](O)C1 [Compound 037]
34 | ≤ 10 | COc1nc(-c2cccc(-c3cccc(-c4nc5cc6c(c(C#N)c5o4)CC[C@@H]6NCCC(=O)O)c3Cl)c2Cl)cnc1CN1CC[C@@H](O)C1 [Compound 038]
35 | ≤ 10 | COc1nc(-c2cccc(-c3cccc(-c4nc5cc6c(c(C#N)c5o4)CC[C@H]6NCCC(=O)O)c3Cl)c2Cl)cnc1CN1CC[C@@H](O)C1 [Compound 039]
36 | ≤ 10 | Cc1c(Nc2nccc3cc(CN4CC[C@@H](O)C4)cnc23)cccc1-c1cccc(-c2nc3cc4c(c(C#N)c3o2)CC[C@H]4N2CC[C@@H](C(=O)O)C2)c1Cl [Compound 040]
37 | ≤ 10 | N#Cc1c2c(cc3nc(-c4cccc(-c5cccc(Nc6nccc7cc(CN8CC[C@@H](O)C8)cnc67)c5Cl)c4Cl)oc13)[C@@H](NCC(=O)NS(=O)(=O)C1CC1)CC2 [Compound 042]
38 | 10 to 100 | CCOC(=O)CN[C@H]1CCc2c1cc1nc(-c3cccc(-c4cccc(Nc5nccc6cc(CN7CC[C@@H](O)C7)cnc56)c4Cl)c3Cl)oc1c2C#N [Compound 043]
39 | ≤ 10 | Cc1c(-c2nc3cc4c(c(C#N)c3o2)CC[C@H]4N2CC[C@@H](C(=O)O)C2)cccc1-c1cccc(Nc2nc(C(F)F)nc3cc(CN4CC[C@@H](O)C4)cnc23)c1Cl [Compound 081]
40 | ≤ 10 | Cc1c(Nc2nc(C(F)F)nc3cc(CN4CC[C@@H](O)C4)cnc23)cccc1-c1cccc(-c2nc3cc4c(c(C#N)c3o2)CC[C@H]4N2CC[C@@H](C(=O)O)C2)c1Cl [Compound 082]
41 | ≤ 10 | N#Cc1c2c(cc3nc(-c4cccc(-c5cccc(Nc6nc(C(F)F)nc7cc(CN8CC[C@@H](O)C8)cnc67)c5Cl)c4Cl)oc13)[C@H](N1CC[C@@H](C(=O)O)C1)CC2 [Compound 083]
42 | ≤ 10 | COc1nc(-c2cccc(-c3cccc(-c4nc5cc6c(c(C#N)c5o4)CC[C@H]6N4CC[C@@H](C(=O)NS(=O)(=O)C5(C)CC5)C4)c3C)c2C)cnc1CN1CC[C@@H](O)C1 [Compound 084]
43 | ≤ 10 | COc1nc(-c2cccc(-c3cccc(-c4nc5cc6c(c(C#N)c5o4)CC[C@H]6N4CC[C@@H](C(=O)NS(=O)(=O)C5(C)CC5)C4)c3Cl)c2Cl)cnc1CN1CC[C@@H](O)C1 [Compound 086]

Source: US20220372031A1, “NOVEL TRICYCLIC AROMATIC HETEROCYCLIC COMPOUND, PREPARATION METHOD THEREFOR, PHARMACEUTICAL COMPOSITION AND APPLICATION THEREOF” (SHANGHAI LONGWOOD BIOPHARMACEUTICALS CO., LTD., priority 2019, published 2022)
